Literature values, collected in patent US12102628B2, “Composition and methods for the treatment of myopia” (Seinda Pharmaceutical Guangzhou Corporation, priority 2017, dated 2024).
Read-outs that look alike come from different tables or passages of the source.

Tests used:
[1] = not given; remark: listed apart in the source
[2] = ophthalmic use, concentrations per Table 2
M3 receptor = M3 receptor (Homo sapiens, UniProt P20309); conditions: M3 receptor-selective antagonists
myopic children = conditions: for Myopia progression: myopic children

Chain of M3 receptor (P20309 whole entry): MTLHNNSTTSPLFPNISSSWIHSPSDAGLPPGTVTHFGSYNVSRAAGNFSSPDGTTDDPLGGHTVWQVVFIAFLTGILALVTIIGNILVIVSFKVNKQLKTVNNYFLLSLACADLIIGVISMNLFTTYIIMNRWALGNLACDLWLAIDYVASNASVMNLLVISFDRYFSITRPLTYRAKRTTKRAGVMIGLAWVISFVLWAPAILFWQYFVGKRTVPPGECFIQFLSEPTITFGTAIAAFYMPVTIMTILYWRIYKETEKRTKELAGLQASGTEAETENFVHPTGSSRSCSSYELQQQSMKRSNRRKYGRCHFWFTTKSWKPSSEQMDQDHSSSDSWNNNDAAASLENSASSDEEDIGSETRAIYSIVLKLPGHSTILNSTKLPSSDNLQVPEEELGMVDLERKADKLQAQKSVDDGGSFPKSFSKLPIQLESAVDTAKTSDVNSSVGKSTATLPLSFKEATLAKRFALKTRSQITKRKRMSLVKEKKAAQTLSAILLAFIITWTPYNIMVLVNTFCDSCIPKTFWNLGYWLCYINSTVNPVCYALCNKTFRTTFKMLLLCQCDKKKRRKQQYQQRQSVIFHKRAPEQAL

Compound	Aqueous Solubility [µg/mL]	logP [1]	Acting Duration [2] [days]	also measured
NC(=O)C(c1ccccc1)(c1ccccc1)[C@@H]1CCN(CCc2ccc3c(c2)CCO3)C1 [Darifenacin]	6030	4.5	–	–
CN1CCN(CC(=O)N2c3ccccc3C(=O)Nc3cccnc32)CC1 [Pirenzepine]	–	–	<1	–
Tiotropium	25000	–	–	–
c1ccc(C(O[C@@H]2CCCN(CCc3ccc4c(c3)OCO4)C2)c2ccccc2)cc1 [Zamifenacin]	20	4.4	–	Affinity (pKi) (M3 receptor): 9.3
CN(C)CCOC(=O)C(c1ccccc1)C1(O)CCCC1 (stereo not drawn) [Cyclopentolate]	–	–	4	–
CN1[C@@H]2CC[C@H]1C[C@@H](OC(=O)C(CO)c1ccccc1)C2 (stereo partly drawn) [Atropine, atropine]	–	–	7 to 14	Pupil dilation diameter (pupil; 0.05% atropine solution, control group 2.93 mm): 5.52 mm; Photophobia ratio (pupil; low concentration atropine group): about 66.67%; Effect on myopia progression (in words) (myopic children; 0.5% atropine solution): effectively slow the myopia progression; Myopia progression (myopic children; atropine concentration 0.1%): 0.47 diopter/yr; Myopia progression (myopic children; atropine concentration 0.25%): 0.45 diopter/yr; Myopia progression (myopic children; atropine concentration 0.5%): 0.04 diopter/yr
